Experiment: hydrogen sulfide scavenging in sour Isopar M solvent
Settings: sour Isopar M solvent with 4000 ppm H2S, scavenger dose per sample in the 5th table
Method: Further testing was performed to compare the hydrogen sulfide scavenging properties of an exemplary embodiment of the multipurpose process chemical compared to conventional scavengers.
A sour Isopar™ M solvent was obtained with 4000 ppm hydrogen sulfide (H2S). Samples were obtained by mixing the following with the sour Isopar™ M solvent:
The control and Samples V-A through V-F were stirred for twenty-four (24) hours at ambient temperature (˜71° F.). […] The table below summarizes the hydrogen sulfide scavenging observed for each sample: […]

SMILES: CC1COC(=O)O1 (centres unmarked) [Sample V-C, propylene carbonate]
- % H2S reduction (24 hours, ambient temperature): 0%
- H2S at 24 hours (ppm) (stirred 24 hours at ambient temperature (~71 F), control 3,500 ppm): 3,500 ppm

— US20250002785A1, “MULTIPURPOSE IMIDAZOLINE-BASED PROCESS CHEMICALS” (Baker Hughes Oilfield Operations LLC, priority 2023, published 2025)
